ChEMBL document CHEMBL5126582, “Discovery of (2-(pyrrolidin-1-yl)thieno[3,2-d]pyrimidin-4-yl)(3,4,5-trimethoxyphenyl)methanone as a novel potent tubulin depolymerizing and vascular disrupting agent” (Eur J Med Chem, 2022)
Active and inactive are the calls of the source. The calls are words filed in the database; no cut-off is given here.

How the values were obtained:
HeLa [1] = test: Inhibition of colony formation in human HeLa cells assessed as reduction in colony formation at 1 to 250 nM incubated for 48 hrs followed by culturing in fresh compound-free medium for 10 days by crystal violet staining based assay; format: functional, cell-based; details: dose 1-250 nM, DDE = dose-dependent effect
HeLa [2] = test: Induction of cell cycle arrest in human HeLa cells assessed as reduction of cells at S phase at 100 to 2000 nM incubated for 24 to 48 hrs by […] flow cytometry; format: functional; details: dose 100-2000 nM, time 24-48 hrs
HeLa [3] = test: Induction of apoptosis in human HeLa cells assessed as viable cells at 100 nM incubated for 24 hrs by annexin V FITC and propidium iodide staining based flow cytometry analysis (reference value: 85.7%); format: functional; details: read-out: Activity
HeLa [4] = test: Induction of apoptosis in human HeLa cells assessed as early apoptotic cells at 100 nM incubated for 24 hrs by annexin V FITC and propidium iodide staining based flow cytometry analysis (reference value: 0.12%); format: functional
HeLa [5] = test: Induction of apoptosis in human HeLa cells assessed as late apoptotic cells at 100 nM incubated for 24 hrs by annexin V FITC and propidium iodide staining based flow cytometry analysis (reference value: 0.05%); format: functional
HeLa [6] = test: Induction of apoptosis in human HeLa cells assessed as necrotic cells at 100 nM incubated for 24 hrs by annexin V FITC and propidium iodide staining based flow cytometry analysis (reference value: 1.14 %); format: functional
HeLa [7] = test: Induction of apoptosis in human HeLa cells assessed as necrotic cells at 500 nM incubated for 24 hrs by annexin V FITC and propidium iodide staining based flow cytometry analysis (reference value: 1.14 %); format: functional
HeLa [8] = test: Induction of apoptosis in human HeLa cells assessed as early apoptotic cells at 750 nM incubated for 24 hrs by annexin V FITC and propidium iodide staining based flow cytometry analysis (reference value: 0.12%); format: functional
HeLa [9] = test: Induction of apoptosis in human HeLa cells assessed as early apoptotic cells at 500 nM incubated for 48 hrs by annexin V FITC and propidium iodide staining based flow cytometry analysis (reference value: 6.01%); format: functional
HeLa [10] = test: Induction of apoptosis in human HeLa cells assessed as necrotic cells at 1 uM incubated for 48 hrs by annexin V FITC and propidium iodide staining based flow cytometry analysis (reference value: 1.85 %); format: functional
HeLa [11] = test: Induction of apoptosis in human HeLa cells assessed as viable cells at 500 nM incubated for 72 hrs by annexin V FITC and propidium iodide staining based flow cytometry analysis (reference value: 90.1%); format: functional; details: read-out: Activity
HeLa [12] = test: Induction of apoptosis in human HeLa cells assessed as late apoptotic cells at 500 nM incubated for 72 hrs by annexin V FITC and propidium iodide staining based flow cytometry analysis (reference value: 4.70%); format: functional
HeLa [13] = test: Induction of apoptosis in human HeLa cells assessed as necrotic cells at 500 nM incubated for 72 hrs by annexin V FITC and propidium iodide staining based flow cytometry analysis (reference value: 2.88 %); format: functional
HeLa [14] = test: Induction of apoptosis in human HeLa cells assessed as early apoptotic cells at 750 nM incubated for 72 hrs by annexin V FITC and propidium iodide staining based flow cytometry analysis (reference value: 2.36%); format: functional
HeLa [15] = test: Induction of apoptosis in human HeLa cells assessed as early apoptotic cells at 1 uM incubated for 72 hrs by annexin V FITC and propidium iodide staining based flow cytometry analysis (reference value: 2.36%); format: functional
HeLa [16] = test: Induction of mitochondrial membrane potential alteration in human HeLa cells assessed as viable cells at 100 nM measured after 48 hrs by JC1 staining-based flow cytometry analysis (reference value: 90.9 %); format: functional; details: read-out: Activity
HeLa [17] = test: Induction of mitochondrial membrane potential alteration in human HeLa cells assessed as early apoptotic cells at 100 nM measured after 48 hrs by JC1 staining-based flow cytometry analysis (reference value: 9.07%); format: functional
HeLa [18] = test: Induction of mitochondrial membrane potential alteration in human HeLa cells assessed as viable cells at 500 nM measured after 48 hrs by JC1 staining-based flow cytometry analysis (reference value: 90.9%); format: functional; details: read-out: Activity
HeLa [19] = test: Induction of mitochondrial membrane potential alteration in human HeLa cells assessed as early apoptotic cells at 750 nM measured after 48 hrs by JC1 staining-based flow cytometry analysis (reference value: 9.07 %); format: functional
HeLa [20] = test: Inhibition of cell migration in human HeLa cells at 10 to 1000 nM measured up to 24 hrs wound healing assay; format: functional, cell-based; details: dose 10-1000 nM, DDE = dose-dependent effect

Compound: COc1cc(C(=O)c2nc(N3CCCC3)nc3ccsc23)cc(OC)c1OC
- inhibition (HeLa [1]): Dde
- Activity (HeLa [2]): Active
- viability at 0.1 µM (HeLa [3]): 80.5%
- Activity (HeLa [4]): 2.98%
- Activity (HeLa [5]): 5.04%
- Activity (HeLa [6]): 1.52%
- Activity (HeLa [7]): 1.74%
- Activity (HeLa [8]): 8.59%
- Activity (HeLa [9]): 4.64%
- Activity (HeLa [10]): 46.3%
- viability at 0.5 µM (HeLa [11]): 32.6%
- Activity (HeLa [12]): 14.5%
- Activity (HeLa [13]): 52.2%
- Activity (HeLa [14]): 1.24%
- Activity (HeLa [15]): 5.47%
- viability at 0.1 µM (HeLa [16]): 92.4%
- Activity (HeLa [17]): 7.59%
- viability at 0.5 µM (HeLa [18]): 66.9%
- Activity (HeLa [19]): 43.3%
- inhibition (HeLa [20]): Dde
